Biological target: T1, histamine H4 receptor (Homo sapiens, UniProt Q9H3N8)
T1 construct: expressed in transfected cells; host or cells: HEK293SFM cells (membrane preparation)
Assay: H4 Membrane Binding Assay (3H-Histamine displacement)
Details: membranes of recombinant HEK293SFM cells, 10 nM 3H-Histamine, 1.5 hr at room temperature
Summary of the method: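 Radioligand is [3H]-histamine; 1000× unlabeled ligand sets nonspecific binding. Receptor source: membrane pellets from HEK293SFM cells carrying human H4 or other histamine subtypes (human H1–H3, mouse H4), in 50 mM Tris-HCl pH 7.5. Filtration through PEI-treated GF/B filters, then scintillation counting.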

| Compound | IC50 [nM] |
| --- | --- |
| CN1CCN(c2cc(-c3ccc4c(c3)CN(C(=O)OC3CCN(C(=O)C5CCCC5)CC3)CC4)nc(N)n2)CC1 [Example 67, 1-(Cyclopentylcarbonyl)piperidin-4-yl 7-[2-amino-6-(4-methylpiperazin-1-yl)pyrimidin-4-yl]-3,4-dihydroisoquinoline-2(1H)-carboxylate] | 110 |
| COC(=O)NC(C)CC(=O)N1CCc2ccc(-c3cc(N4CCN(C)CC4)nc(N)n3)cc2C1 (stereo not drawn) [Example 113, Methyl{3-[7-[2-amino-6-(4-methylpiperazin-1-yl)pyrimidin-4-yl]-3,4-dihydroisoquinolin-2(1H)-yl]-1-methyl-3-oxopropyl}carbamate] | 147 |
| CCOC(=O)N1CCC(NC(=O)N2CCc3ccc(-c4cc(N5CCN(C)CC5)nc(N)n4)cc3C2)CC1 [Example 52, Ethyl 4-({[7-[2-amino-6-(4-methylpiperazin-1-yl)pyrimidin-4-yl]-3,4-dihydroisoquinolin-2(1H)-yl]carbonyl}amino)piperidine-1-carboxylate] | 130 |
| CN1CCN(c2nc(N)nc3cc(C(=O)NC(Cc4ccc(-c5cccc(F)c5F)nc4)C(=O)N(C)C)ccc23)CC1 (stereo not drawn) [Example 163, 2-Amino-N-[1-{[6-(2,3-difluorophenyl)pyridin-3-yl]methyl}-2-(dimethylamino)-2-oxoethyl]-4-(4-methylpiperazin-1-yl)quinazoline-7-carboxamide] | 66 |
| C[C@@H](NC(=O)c1ccc2c(N3CCN(C)CC3)nc(N)nc2c1)c1ccc2ccccc2c1 [Example 21, (R)-2-Amino-4-(4-methylpiperazin-1-yl)-N-[1-(naphthalen-2-yl)ethyl]quinazoline-7-carboxamide] | 105 |
| CN1CCN(c2cc(-c3ccc4c(c3)CN(C(=O)NC3CCC(C(=O)N(C)C)CC3)CC4)nc(N)n2)CC1 (stereo not drawn) [Example 54, 7-[2-Amino-6-(4-methylpiperazin-1-yl)pyrimidin-4-yl]-N-{4-[(dimethylamino)carbonyl]cyclohexyl}-3,4-dihydroisoquinoline-2(1H)-carboxamide] | 439 |
| CN1CCN(c2cc(-c3ccc4c(c3)CN(C(=O)NC3(C(F)(F)F)CC3)CC4)nc(N)n2)CC1 [Example 117, 7-[2-amino-6-(4-methylpiperazin-1-yl)pyrimidin-4-yl]-N-[1-(trifluoromethyl)cyclopropyl]-3,4-dihydroisoquinoline-2(1H)-carboxamide] | 183 |
| CN1CCN(c2cc(-c3ccc4c(c3)CN(C(=O)OC3CCN(C(=O)NC5CCCC5)CC3)CC4)nc(N)n2)CC1 [Example 70, 1-[(Cyclopentylamino)carbonyl]piperidin-4-yl 7-[2-amino-6-(4-methylpiperazin-1-yl)pyrimidin-4-yl]-3,4-dihydroisoquinoline-2(1H)-carboxylate] | 361 |
| Cc1ccc([C@H](C)NC(=O)c2ccc3c(N4CCN(C)CC4)nc(N)nc3c2)cc1 [Example 32, 2-Amino-N-[(1S)-1-(4-methylphenyl)ethyl]-4-(4-methylpiperazin-1-yl)quinazoline-7-carboxamide] | 334 |
| CN1CCN(c2cc(-c3ccc4c(c3)CN(C(=O)N[C@@H]3CCOC3)CC4)nc(N)n2)CC1 [Example 84, 7-[2-Amino-6-(4-methylpiperazin-1-yl)pyrimidin-4-yl]-N-[(3R)-tetrahydrofuran-3-yl]-3,4-dihydroisoquinoline-2(1H)-carboxamide] | 744 |
| CN1CCN(c2nc(N)nc3cc(C(=O)NCc4cccc(Oc5cc(C#N)ccn5)c4)ccc23)CC1 [Example 183, 2-Amino-N-{3-[(4-cyanopyridin-2-yl)oxy]benzyl}-4-(4-methylpiperazin-1-yl)quinazoline-7-carboxamide] | 65 |
| CN1CCN(c2cc(-c3ccc4c(c3)CN(C(=O)CC3CCOCC3)CC4)nc(N)n2)CC1 [Example 110, 4-(4-Methylpiperazin-1-yl)-6-[2-(tetrahydro-2H-pyran-4-ylacetyl)-1,2,3,4-tetrahydroisoquinolin-7-yl]pyrimidin-2-amine] | 86 |
| CC(C)OC(=O)N1CCC(CC(=O)N2CCc3ccc(-c4cc(N5CCN(C)CC5)nc(N)n4)cc3C2)CC1 [Example 71, Isopropyl 4-{2-[7-[2-amino-6-(4-methylpiperazin-1-yl)pyrimidin-4-yl]-3,4-dihydroisoquinolin-2(1H)-yl]-2-oxoethyl}piperidine-1-carboxylate] | 66 |
| CC(NC(=O)N1CCc2ccc(-c3cc(N4CCN(C)CC4)nc(N)n3)cc2C1)c1cccnc1 (stereo not drawn) [Example 126, 7-[2-Amino-6-(4-methylpiperazin-1-yl)pyrimidin-4-yl]-N-(1-pyridin-3-ylethyl)-3,4-dihydroisoquinoline-2(1H)-carboxamide] | 569 |

Continued by falling IC50, values first:

| IC50 [nM] | Compound |
| --- | --- |
| 65 | CN1CCN(c2nc(N)nc3cc(C(=O)NC(Cc4cccc(Oc5ccccc5)c4)C(=O)N(C)C)ccc23)CC1 (stereo not drawn) [Example 146, 2-Amino-N-[2-(dimethylamino)-2-oxo-1-(3-phenoxybenzyl)ethyl]-4-(4-methylpiperazin-1-yl)quinazoline-7-carboxamide] |
| 63 | CC(NC(=O)N1CCc2ccc(-c3cc(N4CCN(C)CC4)nc(N)n3)cc2C1)c1ccccc1 (stereo not drawn) [Example 51, 7-[2-Amino-6-(4-methylpiperazin-1-yl)pyrimidin-4-yl]-N-(1-phenylethyl)-3,4-dihydroisoquinoline-2(1H)-carboxamide] |
| 56 | CN1CCN(c2nc(N)nc3cc(C(=O)NC(Cc4cccc(OCc5ccc(OC(F)(F)F)cc5)c4)C(=O)N(C)C)ccc23)CC1 (stereo not drawn) [Example 177, 2-Amino-N-[2-(dimethylamino)-2-oxo-1-(3-{[4-(trifluoromethoxy)benzyl]oxy}benzyl)ethyl]-4-(4-methylpiperazin-1-yl)quinazoline-7-carboxamide] |
| 46 | COC(=O)c1ccc(Oc2cccc(CNC(=O)c3ccc4c(N5CCN(C)CC5)nc(N)nc4c3)c2)cc1 [Example 179, Methyl 4-{3-[({[2-amino-4-(4-methylpiperazin-1-yl)quinazolin-7-yl]carbonyl}amino)methyl]phenoxy}benzoate] |
| 45 | CC(C)CC(=O)N1CCc2ccc(-c3cc(N4CCN(C)CC4)nc(N)n3)cc2C1 [Example 100, 4-[2-(3-Methylbutanoyl)-1,2,3,4-tetrahydroisoquinolin-7-yl]-6-(4-methylpiperazin-1-yl)pyrimidin-2-amine] |
| 36 | COC(=O)c1cccc(COc2cccc3c2CCN(C(=O)c2ccc4c(N5CCN(C)CC5)nc(N)nc4c2)C3)c1 [Example 209, Methyl 3-((2-(2-amino-4-(4-methylpiperazin-1-yl)quinazoline-7-carbonyl)-1,2,3,4-tetrahydroisoquinolin-5-yloxy)methyl)benzoate] |
| 34 | CN1CCN(c2cc(-c3ccc4c(c3)CN(C(=O)Cc3ccc(C#N)cc3)CC4)nc(N)n2)CC1 [Example 107, 4-{2-[7-[2-Amino-6-(4-methylpiperazin-1-yl)pyrimidin-4-yl]-3,4-dihydroisoquinolin-2(1H)-yl]-2-oxoethyl}benzonitrile] |
| 25 | CN1CCN(c2nc(N)nc3cc(C(=O)N[C@@H](Cc4ccc(-c5ccccc5)cc4)C(=O)N(C)C)ccc23)CC1 [Example 139, 2-Amino-N-[(1S)-1-(biphenyl-4-ylmethyl)-2-(dimethylamino)-2-oxoethyl]-4-(4-methylpiperazin-1-yl)quinazoline-7-carboxamide] |
| 23 | COC(=O)c1ccc(Oc2cccc(CC(NC(=O)c3ccc4c(N5CCN(C)CC5)nc(N)nc4c3)C(=O)N(C)C)c2)cc1 (stereo not drawn) [Example 169, Methyl 4-{3-[2-({[2-amino-4-(4-methylpiperazin-1-yl)quinazolin-7-yl]carbonyl}amino)-3-(dimethylamino)-3-oxopropyl]phenoxy}benzoate] |
| 20.8 | CN1CCN(c2cc(-c3ccc4c(c3)CN(C(=O)NC3CCCC3)CC4)nc(N)n2)CC1 [Example 5, 7-[2-Amino-6-(4-methylpiperazin-1-yl)pyrimidin-4-yl]-N-cyclopentyl-3,4-dihydroisoquinoline-2(1H)-carboxamide] |
| 17 | COc1cccc(COc2ccc3c(c2)C(NC(=O)c2ccc4c(N5CCN(C)CC5)nc(N)nc4c2)CCC3)c1 (stereo not drawn) [Example 203, 2-Amino-N-(7-(3-methoxybenzyloxy)-1,2,3,4-tetrahydronaphthalen-1-yl)-4-(4-methylpiperazin-1-yl)quinazoline-7-carboxamide] |
| 9.6 | CN1CCN(c2nc(N)nc3cc(C(=O)NC(Cc4cccc(Oc5nsnc5Cl)c4)C(=O)N(C)C)ccc23)CC1 (stereo not drawn) [Example 168, 2-Amino-N-[1-{3-[(4-chloro-1,2,5-thiadiazol-3-yl)oxy]benzyl}-2-(dimethylamino)-2-oxoethyl]-4-(4-methylpiperazin-1-yl)quinazoline-7-carboxamide] |
| 9.3 | COC(=O)c1cccc(COc2ccc3c(c2)C(NC(=O)c2ccc4c(N5CCN(C)CC5)nc(N)nc4c2)CCC3)c1 (stereo not drawn) [Example 204, Methyl 3-((8-(2-amino-4-(4-methylpiperazin-1-yl)quinazoline-7-carboxamido)-5,6,7,8-tetrahydronaphthalen-2-yloxy)methyl)benzoate] |
| 8.4 | CCOC(=O)c1sc(Oc2cccc(CNC(=O)c3ccc4c(N5CCN(C)CC5)nc(N)nc4c3)c2)nc1C [Example 185, Ethyl 2-{3-[({[2-amino-4-(4-methylpiperazin-1-yl)quinazolin-7-yl]carbonyl}amino)methyl]phenoxy}-4-methyl-1,3-thiazole-5-carboxylate] |
| 7.5 | COc1ccc(Oc2cccc(CNC(=O)c3ccc4c(N5CCN(C)CC5)nc(N)nc4c3)c2)cc1 [Example 178, 2-Amino-N-[3-(4-methoxyphenoxy)benzyl]-4-(4-methylpiperazin-1-yl)quinazoline-7-carboxamide] |
| 3.4 | CN1CCN(c2nc(N)nc3cc(C(=O)NCc4cccc(OCc5cccc6nsnc56)c4)ccc23)CC1 [Example 195, 2-Amino-N-[3-(2,1,3-benzothiadiazol-4-ylmethoxy)benzyl]-4-(4-methylpiperazin-1-yl)quinazoline-7-carboxamide] |

From US8481732B2 (Incyte Corporation, priority 2009, dated 2013)
